The values below come from patent publication US20240199613A1 (TAKEDA PHARMACEUTICAL COMPANY LIMITED, priority 2021, published 2024).

The target of one experiment is T1, plasma kallikrein (Homo sapiens, UniProt P03952).
T1 construct: from tissue; host or cells: sodium citrate collected human plasma (78% final)
The experiment in a line: Neat human plasma assay: contact pathway-activated (FXIIa) plasma, PFR-AMC substrate. It is filed as biochemical. Conditions: citrated human plasma (78% final), 10 nM human FXIIa, 100 μM PFR-AMC, room temperature. Here is the method:
To analyze inhibition of plasma kallikrein in an ex vivo setting, the potency of compounds was measure in contact pathway-activated plasma assays. In a fluorogenic peptide substrate assay, test compounds dissolved in DMSO were added to sodium citrate collected human or rat plasma in a 96-well microplate. Alternatively, citrated plasma was collected from rats administered the compounds orally or by IV. 10 nM of human FXIIa (Enzyme Research Laboratories) diluted in pKal buffer (20 mM Tris-HCl, pH 7.5, 150 mM NaCl, 1 mM EDTA, 0.1% PEG-8000, and 0.1% Triton X-100) was added to the plasma, followed by the 100 μM of the profluorescent, synthetic plasma kallikrein substrate PFR-AMC (also diluted in pKal buffer). Final plasma concentration in the reaction was 78%. Fluorescence was immediately monitored by excitation/emission wavelengths of 360 nm/480 nm respectively over a period of 5 minutes in a microplate reader. The resulting linear increase in fluorescence emission (reflecting pKal proteolysis of PFR-AMC substrate) was fit to extract a proteolytic rate (fluorescent units over time), and this rate was subsequently plotted against compound inhibitor concentration. Resulting plots were fit to a standard 4-parameter IC50/IC90 equation to determine min/max values, IC50/90, and slope. All experimental steps were performed at room temperature.

The target of experiment [1] is human activated kallikrein enzyme (Homo sapiens, UniProt P03952). Briefly: Inhibition of activated plasma kallikrein, fluorogenic peptide substrate (PFR-AMC) assay, 500 pM enzyme format. It is filed as biochemical. Conditions: 500 pM activated kallikrein, 300 uM PFR-AMC, 30 min preincubation, 10 min reaction, room temperature; read-out: Primary Dose Response Assay: Average EC50. Here is the method:
Compounds were evaluated for inhibition of the human activated kallikrein enzyme in two formats of an assay employing a fluorogenic peptide substrate. In one assay format, the concentrations of reagents were as follows: 20 mM Tris pH 7.5, 1 mM EDTA, 150 mM sodium chloride, 0.1% PEG-400, 0.1% Triton X-100, 500 pM activated kallikrein enzyme, 300 uM Pro-Phe-Arg-7-amido-4-methylcoumarin (PFR-AMC) substrate. Prior to reaction initiation with substrate, enzyme and inhibitors were preincubated for 30 min at room temperature. After initiation with substrate, reactions were incubated for 10 min at room temperature and fluorescence emission at 460 nm from 380 nm excitation measured with a microplate reader. In another assay format, the concentrations of reagents were as follows: 20 mM Tris pH 7.5, 1 mM EDTA, 150 mM sodium chloride, 0.1% PEG-400, 0.1% Triton X-100, 5 pM activated kallikrein enzyme, 300 uM PFR-AMC substrate. Prior to reaction initiation with substrate, enzyme and inhibitors were preincubated for 30 min at room temperature. After initiation with substrate, reactions were incubated for 18 hr at room temperature and fluorescence emission at 460 nm from 380 nm excitation measured with a microplate reader.
Table 6 provides the results of the assay in the format with 500 pM activated kallikrein assay.

One may read the IC90 as the point of the concentration-response curve where the effect stands at 90%. A lower IC90 goes with greater potency. Usually EC50 stands for the concentration that produces a half-maximal response.

T1 sequence (P03952 391-638 limits assumed): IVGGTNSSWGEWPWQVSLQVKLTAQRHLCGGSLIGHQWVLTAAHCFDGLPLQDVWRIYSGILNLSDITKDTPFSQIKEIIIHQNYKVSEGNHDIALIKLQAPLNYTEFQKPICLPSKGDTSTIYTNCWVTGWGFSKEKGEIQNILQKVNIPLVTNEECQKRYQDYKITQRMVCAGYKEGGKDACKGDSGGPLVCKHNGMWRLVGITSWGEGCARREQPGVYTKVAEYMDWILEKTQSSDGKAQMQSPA
T1 sequence (P03952 20-390 partner limits assumed): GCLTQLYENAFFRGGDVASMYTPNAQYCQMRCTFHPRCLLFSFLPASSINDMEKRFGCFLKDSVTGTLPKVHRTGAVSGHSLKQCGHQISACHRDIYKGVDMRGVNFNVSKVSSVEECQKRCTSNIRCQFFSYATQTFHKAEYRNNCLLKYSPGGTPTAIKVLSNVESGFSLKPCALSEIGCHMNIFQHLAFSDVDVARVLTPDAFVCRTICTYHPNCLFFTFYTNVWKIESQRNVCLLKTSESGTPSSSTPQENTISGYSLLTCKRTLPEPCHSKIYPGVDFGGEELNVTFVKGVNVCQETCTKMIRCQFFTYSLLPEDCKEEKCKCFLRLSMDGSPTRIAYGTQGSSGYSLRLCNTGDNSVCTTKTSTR
Sequence of human activated kallikrein enzyme (P03952 391-638 limits assumed): as the sequence (P03952 391-638 limits assumed) above
Sequence of human activated kallikrein enzyme (P03952 20-390 partner limits assumed): as the sequence (P03952 20-390 partner limits assumed) above

On plasma kallikrein, `COc1cc([C@H]2C[C@@H]2c2nccc(C)n2)nc2cc(NCc3cn4cc(C5CC5)cc(N5CC(=O)N(C)C5=O)c4n3)ccc12` (racemic) [Example 21, rac-1-(6-cyclopropyl-2-(((4-methoxy-2-((1S*,2S*)-2-(4-methylpyrimidin-2-yl)cyclopropyl)quinolin-7-yl)amino)methyl)imidazo[1,2-a]pyridin-8-yl)-3-methylimidazolidine-2,4-dione] gave an IC90 of 1500 to 10000 nM. In addition, the EC50 in experiment [1] is at most 1 nM.

Consider `Cc1ccnc([C@H]2C[C@@H]2c2cc(-n3ccnc3)c3ccc(NCc4cn5cc(C6CC6)cc(N6CC(=O)N(C)C6=O)c5n4)cc3n2)n1` (racemic) [Example 25, rac-1-(2-(((4-(1H-imidazol-1-yl)-2-((1S*,2S*)-2-(4-methylpyrimidin-2-yl)cyclopropyl)quinolin-7-yl)amino)methyl)-6-cyclopropylimidazo[1,2-a]pyridin-8-yl)-3-methylimidazolidine-2,4-dione], for which the 90% effect concentration (IC90) against plasma kallikrein is 1500 to 10000 nM. Besides, the EC50 in experiment [1] was at most 1 nM.

Take `Cc1ccnc([C@H]2C[C@@H]2c2cc(-n3cncn3)c3ccc(NCc4cn5cc(C6CC6)cc(N6CC(=O)N(C)C6=O)c5n4)cc3n2)n1` (racemic) [Example 26, rac-1-(6-cyclopropyl-2-(((2-((1S*,2S*)-2-(4-methylpyrimidin-2-yl)cyclopropyl)-4-(1H-1,2,4-triazol-1-yl)quinolin-7-yl)amino)methyl)imidazo[1,2-a]pyridin-8-yl)-3-methylimidazolidine-2,4-dione]: the IC90 on plasma kallikrein fell in the range of 1500 to 10000 nM. Also, the 50% effective concentration (EC50) in experiment [1] lay within 1 to 10 nM.

For `Cc1ccnc([C@H]2C[C@@H]2c2cc(N(C)C)c3ccc(NCc4cn5cc(C6CC6)cc(N6CC(=O)N(C)C6=O)c5n4)cc3n2)n1` (racemic) [Example 29, rac-1-(6-cyclopropyl-2-(((4-(dimethylamino)-2-((1S*,2S*)-2-(4-methylpyrimidin-2-yl)cyclopropyl)quinolin-7-yl)amino)methyl)imidazo[1,2-a]pyridin-8-yl)-3-methylimidazolidine-2,4-dione], the IC90 at plasma kallikrein was at most 400 nM. For the same compound, the EC50 in experiment [1] is at most 1 nM.

The compound `CNc1cc([C@H]2C[C@@H]2c2nccc(C)n2)nc2cc(NCc3cn4cc(C5CC5)cc(N5CC(=O)N(C)C5=O)c4n3)ccc12` (racemic) [Example 32, rac-1-(6-cyclopropyl-2-(((4-(methylamino)-2-((1S*,2S*)-2-(4-methylpyrimidin-2-yl)cyclopropyl)quinolin-7-yl)amino)methyl)imidazo[1,2-a]pyridin-8-yl)-3-methylimidazolidine-2,4-dione] came in with a 90% effect concentration (IC90) at plasma kallikrein of at most 400 nM. Also, the EC50 in experiment [1] is at most 1 nM.

In turn, `Cc1ccnc([C@H]2C[C@@H]2c2cc(OC3COC3)c3ccc(NCc4cn5cc(C6CC6)cc(N6CC(=O)N(C)C6=O)c5n4)cc3n2)n1` (racemic) [Example 33, rac-1-(6-cyclopropyl-2-(((2-((1S*,2S*)-2-(4-methylpyrimidin-2-yl)cyclopropyl)-4-(oxetan-3-yloxy)quinolin-7-yl)amino)methyl)imidazo[1,2-a]pyridin-8-yl)-3-methylimidazolidine-2,4-dione] yielded an IC90 at plasma kallikrein of 400 to 1500 nM. Also, the concentration for a half-maximal effect (EC50) in experiment [1] is at most 1 nM.

Consider `Cc1ccnc([C@H]2C[C@@H]2c2cc(N(C)S(C)(=O)=O)c3ccc(NCc4cn5cc(C6CC6)cc(N6CC(=O)N(C)C6=O)c5n4)cc3n2)n1` (racemic) [Example 34, rac-N-(7-(((6-cyclopropyl-8-(3-methyl-2,4-dioxoimidazolidin-1-yl)imidazo[1,2-a]pyridin-2-yl)methyl)amino)-2-((1S*,2S*)-2-(4-methylpyrimidin-2-yl)cyclopropyl)quinolin-4-yl)-N-methylmethanesulfonamide], for which the IC90 on plasma kallikrein lay in the range of 1500 to 10000 nM. The concentration for a half-maximal effect (EC50) in experiment [1] is 1 to 10 nM.

Turning to `Cc1ccnc([C@H]2C[C@@H]2c2cc(OC3CCN(C)CC3)c3ccc(NCc4cn5cc(C6CC6)cc(N6CC(=O)N(C)C6=O)c5n4)cc3n2)n1` (racemic) [Example 35, rac-1-(6-cyclopropyl-2-(((4-((1-methylpiperidin-4-yl)oxy)-2-((1S*,2S*)-2-(4-methylpyrimidin-2-yl)cyclopropyl)quinolin-7-yl)amino)methyl)imidazo[1,2-a]pyridin-8-yl)-3-methylimidazolidine-2,4-dione], the IC90 against plasma kallikrein was at most 400 nM. In experiment [1], the EC50 was at most 1 nM.

Regarding `Cc1ccnc([C@H]2C[C@@H]2c2cc(N3CCOCC3)c3ccc(NCc4cn5cc(C6CC6)cc(N6CC(=O)N(C)C6=O)c5n4)cc3n2)n1` (racemic) [Example 40, rac-1-(6-cyclopropyl-2-((1S*,2S)-2-(4-methylpyrimidin-2-yl)cyclopropyl)-4-morpholinoquinolin-7-yl)amino)methyl)imidazo[1,2-a]pyridin-8-yl)-3-methylimidazolidine-2,4-dione], the concentration for an effect of 90% (IC90) against plasma kallikrein was at most 400 nM. Besides, in experiment [1], the concentration giving a half-maximal response (EC50) is at most 1 nM.

For the compound `Cc1ccnc([C@H]2C[C@@H]2C2=CS(=O)(=O)c3ccc(NCc4cn5cc(C6CC6)ccc5n4)cc3N2)n1` (racemic) [Example 55, rac-6-(((6-cyclopropylimidazo[1,2-a]pyridin-2 yl)methyl)amino)-3-((1S*,2S*)-2-(4-methylpyrimidin-2-yl)cyclopropyl)-4H-benzo[b][1,4]thiazine 1,1-dioxide], the concentration for an effect of 90% (IC90) against plasma kallikrein is 1500 to 10000 nM. Moreover, the concentration giving a half-maximal response (EC50) in experiment [1] is at most 1 nM.

`Cc1ccnc([C@H]2C[C@@H]2c2ccc3ccc(NCc4cn5cc(C6CC6)cc(N6CC(=O)N(C)C6=O)c5n4)cc3n2)n1` (racemic) [Example 57, rac-1-(6-cyclopropyl-2-(((2-((1S*,2S*)-2-(4-methylpyrimidin-2-yl)cyclopropyl)quinolin-7-yl)amino)methyl)imidazo[1,2-a]pyridin-8-yl)-3-methylimidazolidine-2,4-dione] yielded a concentration for an effect of 90% (IC90) against plasma kallikrein of 1500 to 10000 nM. Also, the concentration for a half-maximal effect (EC50) in experiment [1] is at most 1 nM.

`Cc1ccnc([C@H]2C[C@@H]2c2ncc3ccc(NCc4cn5cc(C6CC6)cc(N6CC(=O)N(C)C6=O)c5n4)cc3n2)n1` (racemic) [Example 60, rac-1-(6-cyclopropyl-2-(((2-((1S*,2S*)-2-(4-methylpyrimidin-2-yl)cyclopropyl)quinazolin-7-yl)amino)methyl)imidazo[1,2-a]pyridin-8-yl)-3-methylimidazolidine-2,4-dione] returned an IC90 against plasma kallikrein of 10000 to 22000 nM. The EC50 in experiment [1] is 1 to 10 nM.

`Cc1ccnc([C@H]2C[C@@H]2C2=CS(=O)(=O)c3ccc(NCc4cn5cc(C6CC6)cc(N6CC(=O)N(C)C6=O)c5n4)cc3N2)n1` (racemic) [Example 61, rac-1-(6-cyclopropyl-2-(((3-((1S*,2S*)-2-(4-methylpyrimidin-2-yl)cyclopropyl)-1,1-dioxido-4H-benzo[b][1,4]thiazin-6-yl)amino)methyl)imidazo[1,2-a]pyridin-8-yl)-3-methylimidazolidine-2,4-dione] returned an IC90 against plasma kallikrein of 400 to 1500 nM. Further, the EC50 in experiment [1] was at most 1 nM.

For `Cc1ccnc([C@H]2C[C@@H]2C2=NS(=O)(=O)c3ccc(NCc4cn5cc(C6CC6)ccc5n4)cc3N2)n1` (racemic) [Example 64, rac-6-(((6-cyclopropylimidazo[1,2-a]pyridin-2-yl)methyl)amino)-3-((1S*,2S*)-2-(4-methylpyrimidin-2-yl)cyclopropyl)-4H-benzo[e][1,2,4]thiadiazine 1,1-dioxide], the IC90 against plasma kallikrein was in the range of 400 to 1500 nM. The EC50 in experiment [1] is at most 1 nM.

For `Cc1ccnc([C@H]2C[C@@H]2c2cc(OCCO)c3ccc(NCc4cn5cc(C6CC6)cc(N6CC(=O)N(C)C6=O)c5n4)cc3n2)n1` (racemic) [Example 69, rac-1-(6-cyclopropyl-2-(((4-(2-hydroxyethoxy)-2-((1S*,2S*)-2-(4-methylpyrimidin-2-yl)cyclopropyl)quinolin-7-yl)amino)methyl)imidazo[1,2-a]pyridin-8-yl)-3-methylimidazolidine-2,4-dione], the IC90 against plasma kallikrein was 400 to 1500 nM. In experiment [1], the EC50 was at most 1 nM.

Compound `CCN1CCN(c2cc(C3CC3)cn3cc(CNc4ccc5ccc([C@H]6C[C@@H]6c6nccc(C)n6)nc5c4)nc23)CC1` (racemic) [Example 74, rac-N-((6-cyclopropyl-8-(4-ethylpiperazin-1-yl)imidazo[1,2-a]pyridin-2-yl)methyl)-2-((1S*,2S*)-2-(4-methylpyrimidin-2-yl)cyclopropyl)quinolin-7-amine] had an IC90 against plasma kallikrein of 1500 to 10000 nM. The EC50 in experiment [1] is at most 1 nM.
